Results: patent publication US20210015884A1 (priority 2018, published 2021)

System: m^6A levels in viral RNA
Type: cell-based

SMILES: Nc1nccc2c1ncn2[C@@H]1O[C@H](CO)[C@@H](O)[C@H]1O [3DZA, 3-Deazaadenosine]
- total m^6A levels in viral RNA: reduction of m^6A

SMILES: Cc1ccc(Cl)c(Nc2ccccc2C(=O)O)c1Cl [MA, meclofenamic acid]
- total m^6A levels in viral RNA: increase of m^6A
